Results reported in patent publication US11369111B2, “Synergistic composition of nematicide comprising of chalcones” (priority 2017, dated 2022).

What was measured:
cucumber crop = test: Effect on growth of cucumber plants in a poly house; format: in vivo
[1] = tested on: root knot nematodes in soil; test: Effect on root knot nematodes in soil; format: in vivo, Meloidogyne
root-knot nematodes = test: Gall formation in roots of infected cucumber plants (root gall index); format: in vivo
S. cerevisiae = test: Effect of chalcones on common microorganisms (CFU on nutrient agar plates); format: cell-based, Saccharomyces cerevisiae; details: for Effect on microorganism (Colony Forming Units): 24-48 hours
Procedure: (§1) Two common soil microorganisms (Pseudomonas aeruginosa and Bacillus subtilis) and two common laboratory microorganisms (Escherichia coli, and Saccharomyces cerevisiae) were tested for the effects of individual chalcones. Microorganisms were grown on nutrient agar plates containing 10^−4, 10^−5, or 10^−6 M concentrations of chalcones and Colony Forming Units (CFU) were counted after 24-48 hours of growth in nutrient agar plates.

E. coli (Gram negative) = test: as above; format: cell-based, Escherichia coli; details: for Effect on microorganism (Colony Forming Units): 24-48 hours
Procedure: as §1

[2] = tested on: B. subtilis (Gram positive); test: as above; format: cell-based, Bacillus subtilis; details: for Effect on microorganism (Colony Forming Units): 24-48 hours
Procedure: as §1

Caenorhabditis elegans = details: 10^−4 M, laboratory conditions, individually; cited from earlier work
[3] = tested on: P. aeruginosa (Gram negative); test: Effect of chalcones on common microorganisms (CFU on nutrient agar plates); format: cell-based, Pseudomonas aeruginosa; details: for Effect on microorganism (Colony Forming Units): 24-48 hours
Procedure: as §1

With `CNC(=O)Oc1cccc2c1OC(C)(C)C2` [Carbofuran] the “increase in shoot length compared to untreated plants” value (from here on “increase in shoot length”) (cucumber crop; Day 10 (FIG. 3)) was “did not show similar positive effect”, the “increase in leaf length compared to untreated plants” value (shortened to “increase in leaf length”) (cucumber crop; Day 10 (FIG. 6)) was “did not show similar positive effect” and the “increase in number of flowers compared to untreated plants” value (shortened to “increase in number of flowers”) (cucumber crop; Day 10 (FIG. 9)) was “did not show similar positive effect”. The “increase in shoot length” value (cucumber crop; Day 21 (FIG. 4)) was “did not have similar positive effect”, the “increase in leaf length” value (cucumber crop; Day 21 (FIG. 7)) was “did not show similar positive effect” and the “increase in number of flowers” value (cucumber crop; Day 21 (FIG. 10)) was “did not show similar positive effect”. For the same compound, the “increase in number of fruits compared to untreated plants” value (“increase in number of fruits” for short) (cucumber crop; Day 21 (FIG. 12)) was “did not show similar positive effect”, the “increase in number of fruits” value (cucumber crop; Day 21 (FIG. 13)) was “did not show similar positive effect” and the “increase in number of fruits” value (cucumber crop; Day 21 (FIG. 14)) was “did not show similar positive effect”. The “increase in shoot length” value (cucumber crop; Day 35 (FIG. 5)) was “did not show similar positive effect”, the “increase in leaf length” value (cucumber crop; Day 35 (FIG. 8)) was “did not show similar positive effect” and the “increase in number of flowers” value (cucumber crop; Day 35 (FIG. 11)) was “did not show similar positive effect”. For the same compound, the “Percentage Change compared to untreated, Average Leaf length” value (cucumber crop; after 28 days of treatment) was 6%, the “Percentage Change compared to untreated, Average Shoot length” value (cucumber crop; after 28 days of treatment) was 3% and the “Percentage Change compared to untreated, Average number of flowers” value (cucumber crop; after 28 days of treatment) was −9%. The “Percentage Change compared to untreated, Average number of fruits” value (cucumber crop; after 28 days of treatment) was 50%, the “effect on nematodes in the soil” value ([1]; after 14 days, even at higher dosages) was “did not show any significant effect” and the “efficacy in killing and maintaining a small number of nematodes in soil” value ([1]; after 19 days of treatment (FIG. 17-19)) was “do not have the same positive effect”. For the same compound, the “Root gall index (Day 1)” value (root-knot nematodes; Day 1) was 1, the “Root gall index (Day 25 of treatment)” value (root-knot nematodes; Day 25 of treatment) was 2 (2=1-25%) and the “Root gall index (Day 45-20 days after second treatment)” value (root-knot nematodes; Day 45, 20 days after second treatment) was 4 (4=51-75%).
With `O=C(/C=C/c1ccccc1)c1ccc(Cl)cc1Cl` [Chalcone 17, (2E)-1-(2,4-Dichlorophenyl)-3-phenyl-2-propen-1-one] the “Effect on microorganism (Colony Forming Units)” value (shortened to “Effect on microorganism”) (S. cerevisiae; 10^−4 M) was 97.0, the “Effect on microorganism” value (S. cerevisiae; 10^−5 M) was 82.8 and the “Effect on microorganism” value (S. cerevisiae; 10^−6 M) was 106.7. For the same compound, the “Effect on microorganism” value (E. coli (Gram negative); 10^−4 M) was 115.4, the “Effect on microorganism” value (E. coli (Gram negative); 10^−5 M) was 131.3 and the “Effect on microorganism” value (E. coli (Gram negative); 10^−6 M) was 97.3. For the same compound, the “effect on growth of microorganism” value [2] was “limit the growth”, the “Effect on microorganism” value ([2]; 10^−4 M) was 69.0 and the “Effect on microorganism” value ([2]; 10^−5 M) was 51.4. For the same compound, the “Effect on microorganism” value ([2]; 10^−6 M) was 50.8, the nematicidal activity (Caenorhabditis elegans) was “shown nematicidal activity” and the “effect on growth of microorganism” value [3] was “limit the growth”. The “Effect on microorganism” value ([3]; 10^−4 M) was 55.8, the “Effect on microorganism” value ([3]; 10^−5 M) was 53.9 and the “Effect on microorganism” value ([3]; 10^−6 M) was 56.0.
In the case of `CCOc1ccc(C(=O)/C=C/c2ccccc2)cc1` [Chalcone 25, (2E)-1-(4-Ethoxyphenyl)-3-phenyl-2-propen-1-one], the “effect on growth of microorganism” value (S. cerevisiae) is reported as “does not affect the growth”, the “Effect on microorganism” value (S. cerevisiae; 10^−4 M) is reported as 97.8 and the “Effect on microorganism” value (S. cerevisiae; 10^−5 M) is reported as 125.4. The “Effect on microorganism” value (S. cerevisiae; 10^−6 M) was 90.3, the “effect on growth of microorganism” value (E. coli (Gram negative)) was “does not affect the growth” and the “Effect on microorganism” value (E. coli (Gram negative); 10^−4 M) was 52.3. For the same compound, the “Effect on microorganism” value (E. coli (Gram negative); 10^−5 M) was 69.6, the “Effect on microorganism” value (E. coli (Gram negative); 10^−6 M) was 103.3 and the “effect on growth of microorganism” value [2] was “limit the growth”. For the same compound, the “Effect on microorganism” value ([2]; 10^−4 M) was 55.1, the “Effect on microorganism” value ([2]; 10^−5 M) was 55.9 and the “Effect on microorganism” value ([2]; 10^−6 M) was 83.6. For the same compound, the nematicidal activity (Caenorhabditis elegans) was “shown nematicidal activity”, the “effect on growth of microorganism” value [3] was “promote the growth” and the “Effect on microorganism” value ([3]; 10^−4 M) was 148.8. For the same compound, the “Effect on microorganism” value ([3]; 10^−5 M) was 148.1 and the “Effect on microorganism” value ([3]; 10^−6 M) was 141.2.
In the case of `O=C(/C=C/c1ccccc1)c1cccs1` [Chalcone 30, (2E)-3-Phenyl-1-(2-thienyl)-2-propen-1-one], the nematicidal activity (Caenorhabditis elegans) is given as “shown nematicidal activity”.
